Structures can show the parent of a compound that is named as a salt.
Assays:
[1] = system: isolated atrium (rabbit right atrium); assay: Effect on the frequency of spontaneous flutterings of the isolated atrium; settings: for inhibition at 10 µg/mL: Oryctolagus cuniculus, 0.4 h, after 24 minutes, 1 mg (per 100 ml), read-out: Percentage of reduction of the frequency
Description: (c) Effect on the frequency of spontaneous flutterings of the isolated atrium. Method: Rabbit right atrium in survival in a Ringer-Locke's solution. The substances to be studied are introduced into the tank (at the rate of 0.5 and 1 mg per 100 ml) and remain in contact with the myocardial tissue for 24 minutes.

isolated rabbit atrium = assay: Activity on the electrosystolic entrainment of the isolated rabbit atrium; settings: isolated rabbit right atrium, Ringer-Locke's solution
Description: (d) Activity on the electrosystolic entrainment of the isolated rabbit atrium (G. S. DAWES--Pharmacol. Rev., 4, 43-84, 1952).
Method: Rabbit right atrium in a Ringer-Locke's solution.
After determination of the threshold voltage for the entrainment of the muscle, the latter is subjected to frequencies which increase in successive steps until obtaining a maximum frequency for which the tissue is incapable of responding to the stimuli.
The product is added to the bath. Three electric entrainments are effected in the following 25 minutes. The experiment is then continued for one hour after the rinsing of the tank.

cardiovascular system = assay: Systemic effects in dogs; type: in vivo; settings: 1, 2 and 5 mg/kg
Description: (3) Systemic effects in dogs
Doses used: 1, 2 and 5 mg/kg
left intraventricular pressure

[2] = system: ventricular tachycardia of digitalic origin; assay: Ventricular tachycardia of digitalic origin (ouabain) in anesthetized dogs; type: in vivo; settings: doses of 2 and 5 mg/kg
Description: (a) Action with respect to ventricular tachycardia of digitalic origin (LUCHESI and HARDMAN--J. Pharmacol. exp. Ther., 1961, No. 132, pages 372 to 81).
Method: Creation of a stable ventricular tachycardia in ten dogs (anesthetized) by successive intravenous injections of ouabain.

adrenergic receptors = assay: Inhibitory property of the adrenergic receptors (isoprenaline tachycardia in dogs); type: in vivo
Description: (2) Search for an inhibitory property of the adrenergic receptors
Method: Isoprenaline tachycardia in dogs. Simultaneous recording of the heart rate and of the arterial pressure.

toxicity of pentetrazole = assay: Anticonvulsant property (pentetrazole toxicity in mice); type: in vivo; settings: orally, 100 mg/kg, pentetrazole subcutaneously
Description: Anticonvulsant property (G. CHEN and R. PORTMAN, A.M.A. Arch. Neurol. Psychiat., 68, 498, 1952).

Urinary excretion = assay: Diuretic effect in rats (Lipschitz); type: in vivo; settings: 100 mg/kg orally
Description: Diuretic effect (W. LIPSCHITZ J. Pharmacol. Exp. Ther., 79, 97, 1943) in rats.

central nervous system = assay: Potentialization of the barbiturate and chloralhydrate anesthesia in mice; type: in vivo; settings: 100 mg/kg
Description: Potentialization of the barbiturate and chloralhydrate anesthesia in mice.

[3] = system: auricular tachycardia produced by aconitine; assay: Auricular tachycardia produced by aconitine in dogs; type: in vivo; settings: 5 mg/kg
Description: (b) Influence on an auricular tachycardia produced by aconitine.
Method: (D. SCHERF--Proc. Soc. exp. Biol., 1947, 64, 233). A tachycardia is caused in dogs by intramural injection of aconitine in the right atrium near the sinusoidal node.
The rhythm is increased in proportions of 80 to 100%. The auriculo-ventricular tracks show normal permeability, the ventricles are driven at the same frequency.

Solubility in water = type: physicochemical
toxicity to yohimbine = assay: Anti-depressant properties (potentialization of yohimbine toxicity in mice); type: in vivo
Description: Anti-depressant properties (W. J. LANG and S. GORSHORN Arch. Int. Pharmacodyn., 142, 457, 1963).

Local anesthesia = Local anesthesia (test of J. Regnier); type: in vivo; settings: 1% solution
Description: Local anesthesia: test of J. Regnier--Doctoral Dissertation, Med., 203 pages, Bruilliard St Dizier, 1929.

## CCC1CN2CCC1CC2[C@@H](O)c1ccnc2ccc(OC)cc12 (stereo partly shown) [Dihydroquinidine, reference compound]
[1]
  inhibition at 10 µg/mL: 35%

## CC(C)(C)NCC(O)COCC1COc2ccccc2O1 (stereo not shown) [Example 1, 3-tertiobutylamino-1-[(1,4-benzodioxan)-2-ylmethoxy]-2-propanol maleate]
Isolated rabbit atrium
  functional refractory period of the isolated atrium: extends the functional refractory period of the isolated atrium in the same way as dihydroquinidine
Cardiovascular system
  force of cardiac contraction: decreases the force of cardiac contraction
  impact on the cardiovascular system: little impact on the cardiovascular system
  peripheral resistances: decreases the force of cardiac contraction and the peripheral resistances
[1]
  inhibition at 10 µg/mL: 16%
[1]; isolated rabbit right atrium, Ringer-Locke's solution
  chronotropic effect compared with dihydroquinidine: definitely a less negative chronotropic effect than dihydroquinidine
[2]; ten dogs, ouabain
  opposition of ectopic rhythm: opposes ectopic rhythm in all the animals
[2]; in 80% of the cases
  period of activity: more than 30 minutes
Adrenergic receptors; 5 mg/kg
  beta-blocking effect: substantial
  cardioselectivity: cardioselectivity is noted
Adrenergic receptors; from 1 mg/kg intravenously
  reduction of isoprenaline tachycardia: significantly reduces the isoprenaline tachycardia starting with a dose of 1 mg/kg intravenously
Toxicity of pentetrazole
  protection from toxicity of pentetrazole: does not protect mice from toxicity of pentetrazole
Urinary excretion
  diuretic power: does not have any diuretic power
Urinary excretion; Control 28%
  Urinary excretion: 35%
Central nervous system
  Potentialization of the barbiturate and chloralhydrate anesthesia: nothing to report
[3]
  % reduction of auricular tachycardia: 60%
  effect on auricular tachycardia: reduces auricular tachycardia substantially and lastingly
  persistence of the effect after injection: 30 min
Solubility in water
  solubility: 100 mg/mL
Toxicity to yohimbine
  potentialization of toxicity to yohimbine: No potentialization of toxicity to yohimbine
Local anesthesia
  local anesthetic properties compared with Lidocaine: local anesthetic properties superior to Lidocaine
